The values below come from US7777047B2, “Indole compound” (Takeda Pharmaceutical Company Limited, priority 2006, dated 2010).

For data set [1], the target named is T1, GST-hLGK1 (human liver GK) (Homo sapiens, UniProt P35557).
T1 construct: made in house; host or cells: Escherichia coli BL21 (Stratagene), plasmid pGEX6P-2/hLGK1
T1 sequence (P35557 1-464 isoform P35557-3): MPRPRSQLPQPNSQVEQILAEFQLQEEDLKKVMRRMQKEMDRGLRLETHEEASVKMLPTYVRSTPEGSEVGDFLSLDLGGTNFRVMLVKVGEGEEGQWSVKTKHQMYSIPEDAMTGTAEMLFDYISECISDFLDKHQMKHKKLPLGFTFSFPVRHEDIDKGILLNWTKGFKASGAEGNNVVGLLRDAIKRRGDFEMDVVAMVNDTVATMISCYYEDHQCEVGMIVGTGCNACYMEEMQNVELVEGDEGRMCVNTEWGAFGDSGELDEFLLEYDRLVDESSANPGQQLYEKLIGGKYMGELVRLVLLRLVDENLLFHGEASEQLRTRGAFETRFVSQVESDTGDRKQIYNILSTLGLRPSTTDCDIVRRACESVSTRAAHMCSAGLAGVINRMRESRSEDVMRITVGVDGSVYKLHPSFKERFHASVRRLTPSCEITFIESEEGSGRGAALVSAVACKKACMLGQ
As to the kind of experiment: Determination of GK activity value (GST-hLGK1, Mant-ATP, capillary electrophoresis). Format: biochemical. The settings on record: glucokinase activation; GST-hLGK1, D-glucose, 37° C. for 60 min; concentration at midpoint between maximum activity value and control group activity value. On the procedure:
Plasmid DNA to be used for the expression of a protein (GST-hLGK1) containing GST (Glutathione S-transferase) added to the amino terminal of human liver GK in Escherichia coli was prepared as follows.
BL21 strain (Stratagene) transformed with pGEX6P-2/hLGK1 obtained in Reference Example 1A was cultured with shaking at 37° C. for 14 hr in a 200 ml Erlenmeyer flask containing 50 ml of 100 μg/ml ampicillin-containing LB medium. The culture medium (25 ml) was diluted with 225 ml of 100 μg/ml ampicillin-containing LB medium, and further cultured with shaking at 37° C. for 1 hr in a 1 L Erlenmeyer flask. After culture, the Erlenmeyer flask was cooled on ice, 125 μL of 100 mM isopropyl-thio-β-D-galactopyranoside (IPTG) was added (final concentration 50 μM), and cultured at 17° C. for 20 hr. The culture medium was centrifuged, and the obtained fungus was disrupted by ultrasonication. The object protein (GST-hLGK1) was purified from the supernatant using Glutathione Sepharose 4B (Amersham Biosciences K.K.).
A solution (5 μL) of test compound in 50% dimethyl sulfoxide was added to each well of 384 well black plate (Nalge Nunc International K.K.). Then, a solution ([…]) obtained by diluting GST-hLGK1 obtained in Reference Example 2A with measurement buffer (containing 50 mM HEPES (pH 7.4), 200 mM KCl, 5 mM MgCl2, 2.5 mM DTT and 50 μM 2′-(or-3′)-O—(N-methylanthraniloyl)adenosine 5′-triphosphate (Mant-ATP) (Jena Bioscience GmbH)) to 6 μg/mL was added to each well.
Each well was stood at 37° C. for 10 min, and 25 mM D-glucose solution (10 μL) was added to start the reaction.
Each well after the reaction was stood at 37° C. for 60 min, and the reaction was quenched by adding 25 μL of a quenching solution (containing 200 mM HEPES (pH 7.4), 20 mM MgCl2, 200 mM EDTA, 0.03% Triton-X 100, 0.3% Coating 3 reagent (Caliper Life Sciences, Inc.)).
2′-(or-3′)-O—(N-methylanthraniloyl)adenosine 5′-triphosphate (Mant-ATP, substrate) and Mant-ADP (reaction resultant product) were separated from each well after the reaction by a microchip type capillary electrophoresis apparatus 250 HTS (Caliper Life Sciences, Inc.). The reaction rate [(reaction resultant product peak height)/(reaction resultant product peak height+substrate peak height)×100(%)] was calculated from the ratio of the substrate peak height and reaction resultant product peak height obtained by fluorescence detection (excitation wavelength 355 nm, measurement wavelength 460 nm) and used as the index of GK activity.
As a control group, the reaction rate was calculated in the same manner as above except that “solution in 50% dimethyl sulfoxide (without test compound)” was used instead of “solution of test compound in 50% dimethyl sulfoxide”.
A concentration dependency curve of the test compound was drawn with the percentage obtained by dividing the reaction rate of the well added with the test compound (test compound addition group) by the reaction rate of the control group was taken as the GK activity value of the test compound, and the concentration of the test compound at the midpoint between the maximum activity value of the test compound addition group and the control group activity value is shown as EC50 value.

Each structure is given as a SMILES string.

`CN(c1cccc2cc(C3=NCC(CC(N)=O)S3)[nH]c12)S(=O)(=O)c1ccccn1` (single isomer, unassigned) [Example 337, 2-(2-{7-[methyl(pyridin-2-ylsulfonyl)amino]-1H-indol-2-yl}-4,5-dihydro-1,3-thiazol-5-yl)acetamide] came in with a melting point of 149 to 150 °C. The same compound displayed an EC50 in data set [1] of 82 nM.
For `COCCOc1cc(N(C)S(=O)(=O)c2ccccn2)c2[nH]c(C3=N[C@H](CO)CS3)cc2c1` [Example 253, N-[2-[(4R)-4-(hydroxymethyl)-4,5-dihydro-1,3-thiazol-2-yl]-5-(2-methoxyethoxy)-1H-indol-7-yl]-N-methylpyridine-2-sulfonamide], in data set [1], the midpoint of the response, the EC50, lay at 210 nM.
Take `COCCOc1cc(N(C)S(=O)(=O)c2ccccn2)c2[nH]c(C3=N[C@@H](CO)CS3)cc2c1` [Example 254, N-[2-[(4S)-4-(hydroxymethyl)-4,5-dihydro-1,3-thiazol-2-yl]-5-(2-methoxyethoxy)-1H-indol-7-yl]-N-methylpyridine-2-sulfonamide]: a half-maximal effect in data set [1] (EC50) was put at 200 nM.
In turn, `CN(c1cccc2cc(C3=NCC4(CCN(CC(N)=O)CC4)S3)[nH]c12)S(=O)(=O)c1cccs1` [Example 414, 2-(2-{7-[methyl(2-thienylsulfonyl)amino]-1H-indol-2-yl}-1-thia-3,8-diazaspiro[4.5]dec-2-en-8-yl)acetamide] gave a melting point of 226 °C. The compound also showed an EC50 in data set [1] of 37 nM.

For orientation: EC50 means the midpoint of the concentration-response curve. As a reminder, the melting point is the temperature of the solid-liquid transition.
